These results are taken from US7576175B2, “Alpha-4 beta-1 integrin ligands for imaging and therapy” (The Regents of the University of California, priority 2004, dated 2009).

One may read the IC50 as the midpoint of a concentration-inhibition curve.

Numbered stars: 1 amine (or outer) side, 2 acyl side, 3 side chain; on linkers, the order of the positions; unused ones are H or OH. Square brackets hold non-standard residues; d marks the D form. Peptide text beside a SMILES is read from it. * marks the point of attachment. Acryloyl(3-(3-pyridyl),E) = O=C(/C=C/c1cccnc1)*; dBpa = N[C@H](Cc1ccc(C(=O)c2ccccc2)cc1)C(=O)O; d2Nal = N[C@H](Cc1ccc2ccccc2c1)C(=O)O; Ala(cPr) = N[C@@H](CC1CC1)C(=O)O; Hyp = O=C(O)[C@@H]1C[C@@H](O)CN1; X1 = O=C(Cc1ccc(N[*:1])cc1)[*:2]; d3Pal = N[C@H](Cc1cccnc1)C(=O)O; Aad = N[C@@H](CCCC(=O)O)C(=O)O; Cha = N[C@@H](CC1CCCCC1)C(=O)O; NH(2-Me-phenyl) = Cc1ccccc1N*; Chg = N[C@H](C(=O)O)C1CCCCC1; Nle = CCCC[C@H](N)C(=O)O; Ac5c = NC1(C(=O)O)CCCC1; Ac3c = NC1(C(=O)O)CC1; CO = O=C([*:1])[*:2]

In one assay the target is T1, α4β1 integrin (Homo sapiens, UniProt P05556+P13612).
T1 construct: screened against live Jurkat cells (α4β1 integrin-positive); endogenous in cells; host or cells: Jurkat T-leukemia cells
T1 sequence (P13612 34-1032): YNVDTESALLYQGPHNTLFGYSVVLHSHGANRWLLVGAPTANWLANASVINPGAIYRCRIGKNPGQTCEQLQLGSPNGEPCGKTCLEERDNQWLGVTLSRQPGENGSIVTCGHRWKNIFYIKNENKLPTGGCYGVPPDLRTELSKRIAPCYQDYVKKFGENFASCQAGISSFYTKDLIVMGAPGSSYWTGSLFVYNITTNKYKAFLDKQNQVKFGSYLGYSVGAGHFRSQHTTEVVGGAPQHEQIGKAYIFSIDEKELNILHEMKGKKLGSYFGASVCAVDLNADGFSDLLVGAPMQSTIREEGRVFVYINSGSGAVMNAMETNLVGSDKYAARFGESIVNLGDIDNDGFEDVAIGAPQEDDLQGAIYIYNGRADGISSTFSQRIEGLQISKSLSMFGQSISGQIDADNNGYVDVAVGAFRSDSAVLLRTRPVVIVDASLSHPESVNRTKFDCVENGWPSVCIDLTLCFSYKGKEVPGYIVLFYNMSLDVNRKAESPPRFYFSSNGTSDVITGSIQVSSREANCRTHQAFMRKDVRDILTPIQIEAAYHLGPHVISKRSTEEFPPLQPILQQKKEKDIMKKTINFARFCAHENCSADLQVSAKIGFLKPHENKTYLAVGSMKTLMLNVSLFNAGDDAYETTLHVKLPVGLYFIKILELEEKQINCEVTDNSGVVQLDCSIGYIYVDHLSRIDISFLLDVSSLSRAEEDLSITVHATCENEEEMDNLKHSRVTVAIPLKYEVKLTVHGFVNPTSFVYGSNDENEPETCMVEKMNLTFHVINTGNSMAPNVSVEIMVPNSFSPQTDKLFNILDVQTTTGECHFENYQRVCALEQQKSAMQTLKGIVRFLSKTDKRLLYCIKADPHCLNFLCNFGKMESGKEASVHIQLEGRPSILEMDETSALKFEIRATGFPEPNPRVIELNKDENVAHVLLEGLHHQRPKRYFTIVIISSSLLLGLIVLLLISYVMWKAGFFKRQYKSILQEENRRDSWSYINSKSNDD
T1 sequence (P05556 21-798): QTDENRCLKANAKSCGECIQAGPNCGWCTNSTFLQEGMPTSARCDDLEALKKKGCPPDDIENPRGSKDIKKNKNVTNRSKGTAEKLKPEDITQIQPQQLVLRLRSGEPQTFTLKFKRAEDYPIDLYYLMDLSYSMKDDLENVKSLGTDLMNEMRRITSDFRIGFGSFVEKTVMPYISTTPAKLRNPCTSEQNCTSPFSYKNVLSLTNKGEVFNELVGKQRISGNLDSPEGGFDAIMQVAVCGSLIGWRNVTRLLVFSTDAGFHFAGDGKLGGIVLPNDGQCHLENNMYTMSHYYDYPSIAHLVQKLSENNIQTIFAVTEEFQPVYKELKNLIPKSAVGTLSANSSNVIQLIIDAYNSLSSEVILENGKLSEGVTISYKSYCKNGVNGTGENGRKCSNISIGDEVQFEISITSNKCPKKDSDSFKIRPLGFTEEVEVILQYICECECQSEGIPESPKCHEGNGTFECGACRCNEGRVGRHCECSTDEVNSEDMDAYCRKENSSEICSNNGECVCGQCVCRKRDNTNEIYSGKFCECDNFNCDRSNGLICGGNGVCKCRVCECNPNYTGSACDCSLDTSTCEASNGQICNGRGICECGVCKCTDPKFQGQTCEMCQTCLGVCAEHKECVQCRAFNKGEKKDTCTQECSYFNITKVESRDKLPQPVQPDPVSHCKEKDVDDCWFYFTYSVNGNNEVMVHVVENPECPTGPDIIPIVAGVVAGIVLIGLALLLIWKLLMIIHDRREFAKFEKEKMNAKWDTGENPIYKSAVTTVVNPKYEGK
Nature of the assay: Cell-based α4β1-mediated adhesion assay: inhibition of Jurkat cell adhesion to immobilized CS-1 peptide (IC50).
Settings: not given
`Cc1ccccc1NC(=O)Nc1ccc(CC(=O)N[C@@H](CCCCNC(=O)/C=C/c2cccnc2)C(=O)N[C@@H](CCCC(=O)O)C(=O)NC2(C(=O)N[C@H](CC(=O)O)C(N)=O)CC2)cc1` [3A] ({NH(2-Me-phenyl)-CO}-[X1]K(Acryloyl(3-(3-pyridyl),E))[Aad][Ac3c][dD]-NH2) came in with an IC50 of 500 pM. `Cc1ccccc1NC(=O)Nc1ccc(CC(=O)N[C@@H](CCCCNC(=O)/C=C/c2cccnc2)C(=O)N[C@@H](CCCC(=O)O)C(=O)N[C@H](Cc2ccccc2)C(=O)N[C@H](CC(=O)O)C(N)=O)cc1` [4A] ({NH(2-Me-phenyl)-CO}-[X1]K(Acryloyl(3-(3-pyridyl),E))[Aad][dF][dD]-NH2) displayed an IC50 of 400 pM. On to `Cc1ccccc1NC(=O)Nc1ccc(CC(=O)N[C@@H](CCCCNC(=O)/C=C/c2cccnc2)C(=O)N[C@@H](CCCC(=O)O)C(=O)N[C@H](Cc2ccccc2)C(=O)N[C@H](Cc2cccnc2)C(N)=O)cc1` [7A] ({NH(2-Me-phenyl)-CO}-[X1]K(Acryloyl(3-(3-pyridyl),E))[Aad][dF][d3Pal]-NH2), for which the IC50 stood at 4000 pM. The molecule `CCCC[C@H](NC(=O)Cc1ccc(NC(=O)Nc2ccccc2C)cc1)C(=O)N[C@@H](CCCC(=O)O)C(=O)N[C@@H](CC1CCCCC1)C(=O)N[C@H](CCC(=O)O)C(N)=O` [8A] ({NH(2-Me-phenyl)-CO}-[X1][Nle][Aad][Cha][dE]-NH2) came in with an IC50 of 750 pM.

Consider `CCCC[C@H](NC(=O)Cc1ccc(NC(=O)Nc2ccccc2C)cc1)C(=O)N[C@@H](CCCC(=O)O)C(=O)N[C@H](C(=O)N1C[C@H](O)C[C@H]1C(=O)N[C@@H](CCCC(=O)O)C(N)=O)C1CCCCC1` [9A] ({NH(2-Me-phenyl)-CO}-[X1][Nle][Aad][Chg][Hyp][Aad]-NH2), for which the IC50 was 1450 pM. Regarding `Cc1ccccc1NC(=O)Nc1ccc(CC(=O)N[C@@H](CC2CC2)C(=O)N[C@@H](CCCC(=O)O)C(=O)N[C@H](C(=O)NC2(C(=O)N[C@H](CC(=O)O)C(=O)N[C@H](CCC(=O)O)C(N)=O)CCCC2)C2CCCCC2)cc1` [10A] ({NH(2-Me-phenyl)-CO}-[X1][Ala(cPr)][Aad][Chg][Ac5c][dD][dE]-NH2), the half-maximal inhibitory concentration (IC50) is 530 pM. As to `Cc1ccccc1NC(=O)Nc1ccc(CC(=O)N[C@@H](CCCCNC(=O)/C=C/c2cccnc2)C(=O)N[C@@H](CCCC(=O)O)C(=O)N[C@H](Cc2ccc3ccccc3c2)C(=O)N[C@@H](C(=O)N[C@H](Cc2ccc(C(=O)c3ccccc3)cc2)C(N)=O)[C@H](C)O)cc1` [11A] ({NH(2-Me-phenyl)-CO}-[X1]K(Acryloyl(3-(3-pyridyl),E))[Aad][d2Nal][dT][dBpa]-NH2), the IC50 turned out to be 77500 pM. The same measure, in the same setting: to `Cc1ccccc1NC(=O)Nc1ccc(CC(=O)N[C@@H](CCCCNC(=O)/C=C/c2cccnc2)C(=O)N[C@@H](CCCC(=O)O)C(=O)N[C@@H](Cc2ccccc2)C(N)=O)cc1` [14A] belongs 200 pM.

The assay is the same for the next values; noted with them: Jurkat cell adhesion to CS-1 peptide; re-synthesized ligands of Tables 18 and 19; read-out: IC50.
With `Cc1ccccc1NC(=O)Nc1ccc(CC(=O)N[C@@H](CCCCNC(=O)/C=C/c2cccnc2)C(=O)N[C@@H](CCCC(=O)O)C(=O)N[C@H](Cc2ccccc2)C(N)=O)cc1` [1A], the IC50 came to 22 pM. `Cc1ccccc1NC(=O)Nc1ccc(C(C)C(=O)N[C@@H](CCCCNC(=O)/C=C/c2cccnc2)C(=O)N[C@@H](CCCC(=O)O)C(=O)N[C@H](Cc2ccccc2)C(N)=O)cc1` (stereo partly drawn) [1B]: the IC50 came to 8900 pM. `Cc1ccccc1NC(=O)Nc1ccc(C(C)C(=O)N[C@@H](CCCCNC(=O)/C=C/c2cccnc2)C(=O)N[C@@H](CCCC(=O)O)C(=O)NC2(C(N)=O)CCCCC2)cc1` (stereo partly drawn) [2B]: the IC50 was determined as 9500 pM. In the case of `Cc1ccccc1NC(=O)Nc1ccc(CC(=O)N[C@@H](CCCCNC(=O)/C=C/c2cccnc2)C(=O)N[C@@H](CCCC(=O)O)C(=O)N[C@H](Cc2ccccc2)C(=O)O)cc1` [12A], the IC50 was found to be 400 pM. `Cc1ccccc1NC(=O)Nc1ccc(CC(=O)N[C@@H](CCCCNC(=O)/C=C/c2cccnc2)C(=O)N[C@@H](CCCC(=O)O)C(=O)N[C@H](C(N)=O)C(C)C)cc1` [15A]: the half-inhibitory concentration (IC50) was determined as 200 pM.

Take `Cc1ccccc1NC(=O)Nc1ccc(CC(=O)N[C@@H](CCCCNC(=O)/C=C/c2cccnc2)C(=O)N[C@@H](CCCC(=O)O)C(=O)N[C@@H](C(N)=O)C(C)C)cc1` [16A]: the IC50 was determined as 200 pM.

For the next assay, the target named is T1, α4β1 integrin. The experiment in a line: Bead-binding inhibition assay: soluble ligand inhibits binding of Jurkat cells to BIO-1211-containing beads. As to conditions: overnight incubation, FIG. 7. The class given is cell-based. The text has this:
To this end, the bead library was screened using Jurkat cells in the presence of BIO-1211.
This library was screened using a competitive cell-based screening method with high stringency so that only those ligands with very high affinity to α4β1 integrin are coated by a layer of lymphoma cells (FIG. 2). To achieve this, an increasing amount of known α4β1 antagonist was incorporated into the screening solution, which competed with the interaction between cell surface α4β1 integrin and the immobilized library compounds on the bead surface, until a limited number of positive beads were detected in the library. […] Twenty beads were isolated under these high stringency conditions. Guanidine HCl (8 M) was used to strip the beads of all cells and proteins. The recovered beads were then retested with normal peripheral blood lymphocytes. Beads that bound preferentially to Jurkat cells but not to normal lymphocytes were sequenced. A total of twelve true positive beads were isolated and decoded, which represented 6 independent ligands. All of the identified ligands have the following structure:
The bead-binding inhibition assay was performed using the soluble ligand to inhibit the binding of Jurkat cells to the BIO-1211-containing beads.
Consider `Cc1ccccc1NC(=O)Nc1ccc(CC(=O)N[C@@H](CCCCNC(=O)/C=C/c2cccnc2)C(=O)N[C@@H](CCCC(=O)O)C(=O)N[C@H](Cc2ccccc2)C(=O)N[C@H](CC(=O)O)C(N)=O)cc1` [4A] ({NH(2-Me-phenyl)-CO}-[X1]K(Acryloyl(3-(3-pyridyl),E))[Aad][dF][dD]-NH2), for which the “concentration inhibiting binding of Jurkat cells to BIO-1211-containing beads, compared with BIO-1211” value is given as “significantly lower concentration than BIO-1211”.

Still in this assay, the particulars now being: soluble ligand vs BIO-1211-containing beads, Jurkat cells.
Consider `Cc1ccccc1NC(=O)Nc1ccc(CC(=O)N[C@@H](CCCCNC(=O)/C=C/c2cccnc2)C(=O)N[C@@H](CCCC(=O)O)C(=O)NC2(C(N)=O)CCCCC2)cc1` [2A], for which the “binding affinity for α4β1 integrin in the bead-binding inhibition assay” value was “highest binding affinities”. With `Cc1ccccc1NC(=O)Nc1ccc(CC(=O)N[C@@H](CCCCNC(=O)/C=C/c2cccnc2)C(=O)N[C@@H](CCCC(=O)O)C(=O)NC2(C(=O)N[C@H](CC(=O)O)C(N)=O)CC2)cc1` [3A] ({NH(2-Me-phenyl)-CO}-[X1]K(Acryloyl(3-(3-pyridyl),E))[Aad][Ac3c][dD]-NH2), the “binding affinity for α4β1 integrin in the bead-binding inhibition assay” value is on record as “highest binding affinities”.

In the case of `Cc1ccccc1NC(=O)Nc1ccc(CC(=O)N[C@@H](CCCCNC(=O)/C=C/c2cccnc2)C(=O)N[C@@H](CCCC(=O)O)C(=O)N[C@H](Cc2ccccc2)C(=O)N[C@H](CC(=O)O)C(N)=O)cc1` [4A] ({NH(2-Me-phenyl)-CO}-[X1]K(Acryloyl(3-(3-pyridyl),E))[Aad][dF][dD]-NH2), the “binding affinity for α4β1 integrin in the bead-binding inhibition assay” value is reported as “highest binding affinities”.
